# Experimental data: patent publication US11634452B2, “Compounds for treating neurodegenerative disorders” (ETHNODYNE, priority 2017, dated 2023)
# What was measured:
# [1] = test system: primary rat dopaminergic neurons (TH positive neurons) injured with MPP+; experiment: Neuroprotective effect following exposure to MPP+; assay type: cell-based
# Description: This study investigated the neuroprotective effect of the Compound CR777 of example 1 on rat primary mesencephalic cultures following exposure to 1-methyl-4-phenyl pyridinium (MPP^+).
# Rat dopaminergic neurons were cultured as described by Visanji et al., 2008 FASEB J. 2008; 22(7):2488-97. Briefly, the midbrains obtained from 15-day old rat embryos (Janvier Labs, France) were dissected under a microscope. The embryonic midbrains were removed and placed in ice-cold medium of Leibovitz (L15, Batch 4290114, Pan Biotech, Germany) containing 2% of Penicillin-Streptomycin (PS, Batch 1451013, Pan Biotech) and 1% of bovine serum albumin (BSA, Batch K030913, Pan Biotech). The ventral portion of the mesencephalic flexure, a region of the developing brain rich in dopaminergic neurons, was used for the cell preparations.
# The midbrains were dissociated by trypsinisation for 20 min at 37° C. […] The cells were seeded in supplemented neurobasal medium at a density of 40 000 cells/well in 96 well-plates pre-coated with poly-L-lysine (Batch 3102256, Corning Biocoat) and maintained in a humidified incubator at 37° C. in 5% CO2/95% air atmosphere. Half of the medium was changed every 2 days with fresh medium.
# On day 6 of culture, the medium was removed and fresh medium was added, without or with MPP+ at 4 μM diluted in control medium and let for 48 h. […]
# The following conditions were assessed: (6 wells per condition) • Control (vehicle) • Compound CR777 of example 1 (1 pmol/L) • Compound CR777 of example 1 (10 pmol/L) • Compound CR777 of example 1 (100 pmol/L) • Compound CR777 of example 1 (1 nmol/L) • Compound CR777 of example 1 (10 nmol/L) • Compound CR777 of example 1 (100 nmol/L) • Compound CR777 of example 1 (1 μmol/L) • Compound CR777 of example 1 (10 μmol/L) […]
# Data were expressed in percentage of control conditions (no injury, no compound=100%). All values were expressed as mean+/−SEM (standard error mean) of the 6 wells with statistical analyses on the different conditions (ANOVA followed by Dunnett's test when allowed, using GraphPad Prism software).
# [2] = test system: primary rat motor neurons injured with glutamate; experiment: Primary motor neuron culture survival after glutamate exposure (in vitro ALS model); assay type: cell-based; conditions: CR777 between 1 nM and 10 nM, added 1 h before glutamate (5 μM, 20 min, then 48 h)
# Description: The aim of this study was to study the effect of CR777 on primary motor neuron culture from rat spinal cord (SC) injured by glutamate exposure (a well validated in vitro ALS model and model of motor neuron diseases).
# Rat SC motor neurons were cultured as described by Martinou et al., Neuron. 1992 April; 8(4):737-44 and Wang et al., Hum Mol Genet. 2013 Dec. 1; 22(23):4706-19. Briefly, pregnant female rats (Wistar, Janvier labs) of 14 days gestation were killed by cervical dislocation. […] Cells were then centrifuged at 180 g for 10 min at +4° C. on a layer of BSA (3.5%) in L15 medium. […] The medium was changed every day.
# The following conditions were assessed: • Control • + glutamate (5 μM 20 mn then 48 h) • + glutamate (5 μM 20 mn then 48 h)+CR777 1 pmol/L • + glutamate (5 μM 20 mn then 48 h)+CR777 10 pmol/L • + glutamate (5 μM 20 mn then 48 h)+CR777 100 pmol/L • + glutamate (5 μM 20 mn then 48 h)+CR777 1 nmol/L • + glutamate (5 μM 20 mn then 48 h)+CR777 10 nmol/L • + glutamate (5 μM 20 mn then 48 h)+CR777 100 nmol/L • + glutamate (5 μM 20 mn then 48 h)+CR777 1 μmol/L • + glutamate (5 μM 20 mn then 48 h)+CR777 10 μmol/L […]
# For each condition, 6 wells were assessed, 30 pictures per well were taken using ImageXpress (Molecular Devices) with 20× magnification, to assess motor neuron survival (MAP-2). […]
smiles,measurement,setting,value
CC1=C(CO)C(=O)O[C@@H]([C@@H](C)[C@H]2CCC3C4C[C@H](SC[C@H](NC(=O)CC[C@@H](N)C(=O)O)C(=O)NCC(=O)O)[C@]5(O)[C@@H](O)C=CC(=O)[C@]5(C)C4CC[C@@]32C)C1 (stereo partly drawn) [CR777],TH positive neuron survival,"[1]; added 1 h before MPP+ (4 μM, 48 h), all concentrations 1 pmol/L to 10 μmol/L, more particularly 10 to 100 nmol/L",significantly protected neurons from death
same,neuro-protective effect on MPP+ induced injuries,"[1]; concentrations between 10 and 100 nmol/L, MPP+ 4 μM, 48 h",important and significantly neuro-protective effect
same,motor neuron survival,[2],moderate and significant protective effect
